From patent US20070293512A1, “Condensed Pyrimidine Deriviative and Xanthine Oxidase Inhibitor” (priority 2004, published 2007)
pIC50: −log10 of the molar value.

Tests used:
[1] = molecular target: T1, Cow milk Xanthine Oxidase (Bos taurus, UniProt P80457); assay: Xanthine oxidase inhibition, in vitro (oxidation of xanthine, absorbance at 290 nm); assay type: biochemical; details: xanthine 250 μM, 50 mM phosphate buffer pH 7.5, 30° C., 10 minutes
T1 construct: Cow milk Xanthine Oxidase (Roche); purchased Roche; host or cells: cow milk (natural source)
T1 sequence (P80457 whole entry): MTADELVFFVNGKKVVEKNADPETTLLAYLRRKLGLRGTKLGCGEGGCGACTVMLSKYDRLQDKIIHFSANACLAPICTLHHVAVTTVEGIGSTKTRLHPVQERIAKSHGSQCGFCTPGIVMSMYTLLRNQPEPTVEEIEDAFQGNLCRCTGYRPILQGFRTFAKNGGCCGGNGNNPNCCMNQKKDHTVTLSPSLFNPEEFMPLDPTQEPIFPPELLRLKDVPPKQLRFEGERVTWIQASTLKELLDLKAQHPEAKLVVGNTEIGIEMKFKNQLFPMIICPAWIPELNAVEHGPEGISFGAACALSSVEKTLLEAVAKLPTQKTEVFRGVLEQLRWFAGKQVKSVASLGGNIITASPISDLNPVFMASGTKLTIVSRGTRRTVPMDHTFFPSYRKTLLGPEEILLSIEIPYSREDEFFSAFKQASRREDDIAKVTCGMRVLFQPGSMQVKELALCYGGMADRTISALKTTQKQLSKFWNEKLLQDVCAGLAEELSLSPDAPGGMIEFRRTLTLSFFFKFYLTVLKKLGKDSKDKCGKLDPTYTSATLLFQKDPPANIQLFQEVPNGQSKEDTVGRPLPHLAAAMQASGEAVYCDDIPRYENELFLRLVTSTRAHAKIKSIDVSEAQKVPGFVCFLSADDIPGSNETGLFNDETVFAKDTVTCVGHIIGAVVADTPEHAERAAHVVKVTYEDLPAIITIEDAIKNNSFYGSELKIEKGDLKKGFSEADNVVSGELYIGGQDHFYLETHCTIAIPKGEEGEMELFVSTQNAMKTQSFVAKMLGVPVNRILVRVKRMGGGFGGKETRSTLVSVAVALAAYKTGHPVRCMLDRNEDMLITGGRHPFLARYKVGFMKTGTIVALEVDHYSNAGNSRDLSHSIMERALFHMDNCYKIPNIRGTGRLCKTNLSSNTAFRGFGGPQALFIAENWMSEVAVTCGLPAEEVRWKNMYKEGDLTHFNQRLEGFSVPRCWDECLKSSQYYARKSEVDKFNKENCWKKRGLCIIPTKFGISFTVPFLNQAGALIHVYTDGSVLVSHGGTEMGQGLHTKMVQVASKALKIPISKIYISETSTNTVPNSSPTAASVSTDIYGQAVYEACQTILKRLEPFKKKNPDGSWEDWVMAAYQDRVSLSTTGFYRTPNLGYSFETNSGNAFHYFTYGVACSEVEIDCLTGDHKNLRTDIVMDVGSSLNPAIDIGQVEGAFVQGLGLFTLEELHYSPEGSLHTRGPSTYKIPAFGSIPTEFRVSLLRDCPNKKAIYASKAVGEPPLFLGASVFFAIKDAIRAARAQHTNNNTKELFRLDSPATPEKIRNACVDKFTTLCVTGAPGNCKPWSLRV
Procedure: The xanthine oxidase inhibiting action (in vitro test) of the compound of the invention was confirmed by measuring inhibition of oxidation of xanthine by xanthine oxidase, as described in Example 50. As is clear from Tables 11 and 12, the compounds of the invention show excellent xanthine oxidase inhibiting action.
Pharmacological Experiment 1 (In Vitro Measuring Method)
1. Preparation of Test Sample
The test compound was dissolved in dimethylsulfoxide and diluted with 50 mM phosphate buffer (pH 7.5), to give a solution of a predetermined concentration.
125 μL of each of the solutions of the test compound having different concentrations was added to 1 mL of a solution of Xanthine (SIGMA, 250 μM) in the 50 mM phosphor buffer (pH 7.5). The mixture was then pre-incubated at 30° C. for 5 min. Subsequently, to the pre-incubated mixture was added 125 μL of Cow milk Xanthine Oxidase (Roche) diluted with the 50 mM phosphate buffer (pH 7.5) to 70 mU/mL, and the mixture was subjected to reaction at 30° C. for 10 minutes. Then, 1N hydrochloric acid, (200 μL) was added to the reaction mixture to terminate the reaction. Subsequently, absorbance at OD 290 nm was measured by means of a spectrophotometer (Shimadzu UV-160A)., to obtain a inhibition ratio. The measured inhibition ration was used to obtain […]
The inhibition ratio was calculated according to the following formula: Inhibition ratio (%)=[1−(B−C)/(A−C)]×100 • A: absorbance of control • B: absorbance measured on a sample containing test compound • C: absorbance of blank (Test Results)

| melting point | pIC50 [1] | Structure (SMILES) |
| --- | --- | --- |
| 283 to 288 °C (dec.) | 8.10 | O=[N+]([O-])c1cc(-c2nc3c(O)ncnc3s2)ccc1Oc1ccccc1Cl [Example 18, 2-[4-(2-Chlorophenoxy)-3-nitrophenyl]-4-hydroxythiazolo[5,4-d]pyrimidine] |
| 279 to 281 °C (dec.) | 7.99 | O=[N+]([O-])c1cc(-c2nc3c(O)ncnc3s2)ccc1Oc1cccc(F)c1 [Example 20, 2-[4-(3-Fluorophenoxy)-3-nitrophenyl]-4-hydroxythiazolo[5,4-d]pyrimidine] |
| 276 to 280 °C (dec.) | 8.04 | O=[N+]([O-])c1cc(-c2nc3c(O)ncnc3s2)ccc1Oc1cccnc1 [Example 32, 4-Hydroxy-2-[3-nitro-4-(3-pyridyloxy)-phenyl]thiazolo[5,4-d]pyrimidine] |
